Experimental data taken from BindingDB's records for patent US9670231 (BeiGene, Ltd, 2017).

Legend:
[1] = target: Serine/threonine-protein kinase B-raf [V600E] (Homo sapiens, UniProt P15056, V600E); experiment: Not found
[2] = target: RAF proto-oncogene serine/threonine-protein kinase [Y340D,Y341D] (Homo sapiens, UniProt P04049, Y340D/Y341D); experiment: Not found
Source text: Not found

Sequence of Serine/threonine-protein kinase B-raf [V600E] (P15056 2-766 V600E limits assumed): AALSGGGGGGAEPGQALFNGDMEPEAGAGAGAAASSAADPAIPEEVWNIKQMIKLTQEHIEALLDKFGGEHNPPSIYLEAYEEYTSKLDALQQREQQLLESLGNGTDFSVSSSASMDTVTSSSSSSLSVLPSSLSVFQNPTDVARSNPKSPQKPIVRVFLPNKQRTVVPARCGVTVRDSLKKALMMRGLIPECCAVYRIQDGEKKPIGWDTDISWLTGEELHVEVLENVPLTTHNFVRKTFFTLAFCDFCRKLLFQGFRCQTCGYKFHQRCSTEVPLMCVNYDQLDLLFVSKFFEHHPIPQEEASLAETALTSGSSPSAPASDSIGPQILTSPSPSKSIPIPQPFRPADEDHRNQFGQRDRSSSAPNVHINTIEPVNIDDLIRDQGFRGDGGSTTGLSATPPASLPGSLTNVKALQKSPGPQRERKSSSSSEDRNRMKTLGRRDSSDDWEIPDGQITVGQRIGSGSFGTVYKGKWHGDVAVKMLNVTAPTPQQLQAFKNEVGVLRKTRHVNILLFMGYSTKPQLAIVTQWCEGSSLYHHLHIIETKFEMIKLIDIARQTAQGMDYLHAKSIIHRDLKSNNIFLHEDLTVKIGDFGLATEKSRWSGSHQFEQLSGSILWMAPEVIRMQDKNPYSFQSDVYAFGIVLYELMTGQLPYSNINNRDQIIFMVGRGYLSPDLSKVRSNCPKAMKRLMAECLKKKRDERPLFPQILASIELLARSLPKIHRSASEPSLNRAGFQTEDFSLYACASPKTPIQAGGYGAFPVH
Sequence of RAF proto-oncogene serine/threonine-protein kinase [Y340D,Y341D] (P04049 whole entry Y340D/Y341D): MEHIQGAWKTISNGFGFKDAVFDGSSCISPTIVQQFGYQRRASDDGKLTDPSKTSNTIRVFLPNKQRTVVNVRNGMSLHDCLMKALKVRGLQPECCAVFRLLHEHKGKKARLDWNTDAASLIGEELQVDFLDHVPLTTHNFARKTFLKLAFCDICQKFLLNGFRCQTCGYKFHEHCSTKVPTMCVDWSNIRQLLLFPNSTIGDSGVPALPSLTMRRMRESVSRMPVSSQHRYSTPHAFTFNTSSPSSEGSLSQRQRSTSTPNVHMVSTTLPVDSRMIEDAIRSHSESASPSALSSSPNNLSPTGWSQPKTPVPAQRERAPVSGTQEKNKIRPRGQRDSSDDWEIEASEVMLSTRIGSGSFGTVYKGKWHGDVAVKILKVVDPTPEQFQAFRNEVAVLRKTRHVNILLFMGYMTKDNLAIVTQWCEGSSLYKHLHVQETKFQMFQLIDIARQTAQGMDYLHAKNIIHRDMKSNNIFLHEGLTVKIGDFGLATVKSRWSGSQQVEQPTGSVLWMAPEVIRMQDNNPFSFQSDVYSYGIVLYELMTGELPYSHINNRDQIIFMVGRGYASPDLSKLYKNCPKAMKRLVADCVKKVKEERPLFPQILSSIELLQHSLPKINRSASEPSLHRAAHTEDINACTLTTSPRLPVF

| IC50 [1] [µM] | IC50 [2] [µM] | Compound |
| --- | --- | --- |
| 0.017 |  | CN(C)[C@H]1CCN(Cc2ccc(C(=O)N[C@@H]3[C@H]4Oc5ccc(Oc6ccnc7c6CCC(=O)N7)cc5[C@@H]34)cc2C(F)(F)F)C1 [US9670231, 1.9] |
| 0.014 |  | CN(C)[C@@H]1CCN(Cc2ccc(C(=O)N[C@@H]3[C@H]4Oc5ccc(Oc6ccnc7c6CCC(=O)N7)cc5[C@@H]34)cc2C(F)(F)F)C1 [US9670231, 1.10] |
|  | 0.0062 | O=C1CCc2c(Oc3ccc4c(c3)[C@H]3[C@H](NC(=O)c5ccc(CN6CCC[C@H](O)C6)c(C(F)(F)F)c5)[C@H]3O4)ccnc2N1 [US9670231, 1.15] |
| 0.0104 |  | O=C1CCc2c(Oc3ccc4c(c3)[C@H]3[C@H](NC(=O)c5ccc(CN6CCN(CCO)CC6)c(C(F)(F)F)c5)[C@H]3O4)ccnc2N1 [US9670231, 1.17] |
| 0.011 | 0.0021 | CN(C)C1CCN(Cc2ccc(C(=O)N[C@@H]3[C@H]4Oc5ccc(Oc6ccnc7c6CCC(=O)N7)cc5[C@@H]34)cc2C(F)(F)F)CC1 [US9670231, 1.20] |
| 0.014 | 0.0025 | CN1CCN(CCOc2ccc(C(=O)N[C@@H]3[C@H]4Oc5ccc(Oc6ccnc7c6CCC(=O)N7)cc5[C@@H]34)cc2C(F)(F)F)CC1 [US9670231, 1.52] |
| 0.011 |  | CN1CCN(Cc2ccc(C(=O)N[C@@H]3[C@H]4Oc5ccc(Oc6ccnc7c6COC(=O)N7)cc5[C@@H]34)cc2C(F)(F)F)CC1 [US9670231, 2.2] |
